{"source": "ChEMBL document CHEMBL3045269", "about": "“Anti-leukemic activity of sulfonoquinovosyldiacylglyceride (SQDG): a constituent of Azadirachta indica leaves” (Med Chem Res, 2013)", "assay_type_in_all_cases": "functional", "key": {"[1]": {"system": "U-937", "assay": "Cytotoxicity against Homo sapiens (human) U937 cells assessed as growth inhibition at 2 ug/ml after 48 hr by MTT assay relative to untreated control", "conditions": "U-937, 48 h, read-out: GI"}, "[2]": {"system": "K562", "assay": "Cytotoxicity against Homo sapiens (human) K562 cells assessed as growth inhibition at 2 ug/ml after 48 hr by MTT assay relative to untreated control", "conditions": "K562, 48 h, read-out: GI"}, "[3]": {"system": "U-937", "assay": "Cytotoxicity against Homo sapiens (human) U937 cells assessed as growth inhibition at 2 ug/ml after 24 hr by MTT assay relative to untreated control", "conditions": "U-937, 24 h, read-out: GI"}, "[4]": {"system": "K562", "assay": "Cytotoxicity against Homo sapiens (human) K562 cells assessed as growth inhibition at 2 ug/ml after 24 hr by MTT assay relative to untreated control", "conditions": "K562, 24 h, read-out: GI"}}, "data": [{"compound": "Nc1ccn([C@@H]2O[C@H](CO)[C@@H](O)[C@@H]2O)c(=O)n1", "note": "[CYTARABINE]", "values": [{"measurement": "inhibition of growth at 2 µg/mL", "setting": "[1]", "result": 85.1, "unit": "%"}, {"measurement": "inhibition of growth at 2 µg/mL", "setting": "[2]", "result": 65.1, "unit": "%"}, {"measurement": "inhibition of growth at 2 µg/mL", "setting": "[3]", "result": 59.9, "unit": "%"}, {"measurement": "inhibition of growth at 2 µg/mL", "setting": "[4]", "result": 39.9, "unit": "%"}]}]}
